Literature values as cited in US11155746B2, “Compositions and methods for reducing hydrogen sulfide and microbial influenced corrosion in crude oil, natural gas, and in associated equipment” (priority 2017, dated 2021).

Conditions: atmospheric exposure

S [H2S, hydrogen sulfide]
exposure concentration that can be rapidly fatal: above 600 ppm
exposure concentration that can cause damage to internal organs: above 100 ppm
